{"source": "patent US10905683B2", "about": "“Compositions and uses of amidine derivatives” (BIOCRYST PHARMACEUTICALS, INC., priority 2014, dated 2021)", "key": {"[1]": {"experiment": "Caco-2 bi-directional permeability, absence and presence of P-gp inhibitor verapamil", "format": "in vitro ADME", "settings": "human; Caco-2, P-gp inhibitor absent", "experimental": "(§1) The Caco-2 bi-directional permeability of the compound of Example 1 was evaluated in the absence and presence of a known P-gp inhibitor, verapamil."}, "Caco-2": {"test_system": "Caco-2", "experiment": "Caco-2 bi-directional permeability, absence and presence of P-gp inhibitor verapamil", "format": "in vitro ADME", "experimental": "as §1"}, "[2]": {"experiment": "Further solubility studies in solvents, mixtures and surfactants", "format": "physicochemical", "settings": "thermodynamic from solid", "experimental": "The solubility of the compound of Example 1 in a range of organic solvents, mixtures thereof, and some including surfactants, was measured. […] solubility assays were performed by the sequential addition of the compound of Example 1 to an appropriate organic solvent while stirring vigorously until a precipitate is formed. The resulting suspension is then shaken for 24 hours at room temperature, filtered and the resulting solution was analyzed by appropriate analytical method. Quantitation was performed by comparison of the concentrations of the resulting solution of the compound 1 to a single point calibration curve using a solution of the reference standard. The results are shown in Table 8, in which all percentages are expressed by weight of the total weight of excipients, i.e. excluding the active and the following abbreviations are used: […]"}, "[3]": {"experiment": "Aqueous solubility assay in buffer and simulated gastric/intestinal fluids", "experimental": "The target concentration in each solution was 100 μM. […] The aqueous solutions were added (1 mL) to the dried samples and mixed at 400 rpm at 37° C. on an orbital plate shaker. […] Samples were prepared in triplicate. Testosterone and verapamil were used as reference compounds."}, "[4]": {"experiment": "pH-solubility curve in citrate-phosphate buffers", "format": "physicochemical", "settings": "free base, FIG. 1", "excerpt": "A pH-solubility curve was generated for the compound of Example 1 in citrate-phosphate buffers to evaluate the effect of pH on solubility of the free base material."}}, "data": [{"molecule": "C=Cc1cc(C(=O)Nc2ccc(C(=N)N)cc2)c(-c2ccc(C(=O)NCC3CC3)nc2C(=O)O)cc1OC", "note": "[Example 1, 3-[2-(4-carbamimidoyl-phenylcarbamoyl)-5-methoxy-4-vinyl-phenyl]-6-(cyclopropylmethyl-carbamoyl)-pyridine-2-carboxylic acid]", "values": [{"measurement": "Papp A→B", "setting": "[1]", "value": 0.5, "unit": "×10⁻⁶ cm/s"}, {"measurement": "Papp B→A", "setting": "[1]", "value": 0.5, "unit": "×10⁻⁶ cm/s"}, {"measurement": "efflux ratio", "setting": "[1]", "value": 0.9}, {"measurement": "permeability class", "setting": "Caco-2; Caco-2 bi-directional", "value": "low permeability compound"}, {"measurement": "P-gp substrate", "setting": "Caco-2; Caco-2 with and without verapamil", "value": "does not appear to be a substrate of P-gp"}, {"measurement": "solubility at 24 h", "setting": "[2]; 2.5% SLS in 97.5% PEG400, organic solvent or mixture, 2.5% SLS in 97.5% PEG400, read-out: Example 1 Solubility After 24 hrs", "value": 31.3, "unit": "mg/mL"}, {"measurement": "solubility at 24 h", "setting": "[2]; 2.5% SLS in 97.5% PEG600, organic solvent or mixture, 2.5% SLS in 97.5% PEG600, read-out: Example 1 Solubility After 24 hrs", "value": 25.9, "unit": "mg/mL"}, {"measurement": "solubility at 24 h", "setting": "[2]; 2.5% SLS in 97.5% PG, organic solvent or mixture, 2.5% SLS in 97.5% PG, read-out: Example 1 Solubility After 24 hrs", "value": "> 100", "unit": "mg/mL"}, {"measurement": "solubility at 24 h", "setting": "[2]; 2.5% SLS/8% EtOH/10% PG in 79.5% PEG600, organic solvent or mixture, 2.5% SLS/8% EtOH/10% PG in 79.5% PEG600, read-out: Example 1 Solubility After 24 hrs", "value": 57.3, "unit": "mg/mL"}, {"measurement": "solubility at 24 h", "setting": "[2]; 6% EtOH/15% glycerin/79% water containing 0.3% Tween80, aqueous with cosolvent or surfactant or cyclodextrin, 6% EtOH/15% glycerin/79% water containing 0.3% Tween80, read-out: Example 1 Solubility After 24 hrs", "value": 0.3, "unit": "mg/mL"}, {"measurement": "solubility at 24 h", "setting": "[2]; 6% EtOH/15% glycerin/79% water, aqueous with cosolvent or surfactant or cyclodextrin, 6% EtOH/15% glycerin/79% water, read-out: Example 1 Solubility After 24 hrs", "value": 0.07, "unit": "mg/mL"}, {"measurement": "solubility at 24 h", "setting": "[2]; 8% EtOH/10% PG in 82% PEG600, organic solvent or mixture, 8% EtOH/10% PG in 82% PEG600, read-out: Example 1 Solubility After 24 hrs", "value": 61, "unit": "mg/mL"}, {"measurement": "solubility at 24 h", "setting": "[2]; 10% EtOH in 90% PEG400, organic solvent or mixture, 10% EtOH in 90% PEG400, read-out: Example 1 Solubility After 24 hrs", "value": 61.4, "unit": "mg/mL"}, {"measurement": "solubility at 24 h", "setting": "[2]; 10% EtOH in 90% PEG600, organic solvent or mixture, 10% EtOH in 90% PEG600, read-out: Example 1 Solubility After 24 hrs", "value": 61.4, "unit": "mg/mL"}, {"measurement": "solubility at 24 h", "setting": "[2]; 10% EtOH with 90% PG, organic solvent or mixture, 10% EtOH with 90% PG, read-out: Example 1 Solubility After 24 hrs", "value": "> 100", "unit": "mg/mL"}, {"measurement": "solubility at 24 h", "setting": "[2]; 20% PG in 80% PEG400, organic solvent or mixture, 20% PG in 80% PEG400, read-out: Example 1 Solubility After 24 hrs", "value": 52.9, "unit": "mg/mL"}, {"measurement": "solubility at 24 h", "setting": "[2]; 20% PG in 80% PEG600, organic solvent or mixture, 20% PG in 80% PEG600, read-out: Example 1 Solubility After 24 hrs", "value": 52.4, "unit": "mg/mL"}, {"measurement": "solubility at 24 h", "setting": "[2]; PG/PEG mixtures, organic solvent or mixture, some PG/PEG mixtures, read-out: solubility", "value": "50 to 60", "unit": "mg/mL"}, {"measurement": "solubility at 24 h", "setting": "[2]; mixtures of 90% or more propylene glycol, organic solvent or mixture, some mixtures composed of 90% or more propylene glycol, read-out: solubility", "value": "> 100", "unit": "mg/mL"}, {"measurement": "solubility at 24 h", "setting": "[2]; propylene glycol, organic solvent or mixture, Propylene Glycol, read-out: Example 1 Solubility After 24 hrs", "value": "> 150", "unit": "mg/mL"}, {"measurement": "solubility at 24 h", "setting": "[2]; propylene glycol, organic solvent or mixture, propylene glycol (PG), read-out: solubility", "value": 150, "unit": "mg/mL"}, {"measurement": "solubility at 24 h", "setting": "[3]; 37 °C, fassgf or other biorelevant, thermodynamic from solid, Observed Solubility, Target 100 μM, Fasted-State SGF, 24 hours", "value": 109, "unit": "µM"}, {"measurement": "solubility at 24 h", "setting": "[3]; 37 °C, fassgf or other biorelevant, thermodynamic from solid, Observed Solubility, Target 100 μM, Fed-State SGF, 24 hours", "value": 99, "unit": "µM"}, {"measurement": "solubility at 24 h", "setting": "[3]; 37 °C, fassif, thermodynamic from solid, Observed Solubility, Target 100 μM, Fasted-State SIF, 24 hours", "value": 111, "unit": "µM"}, {"measurement": "solubility at 24 h", "setting": "[3]; 37 °C, fessif, thermodynamic from solid, Observed Solubility, Target 100 μM, Fed-State SIF, 24 hours", "value": 119, "unit": "µM"}, {"measurement": "solubility at 24 h", "setting": "[3]; 37 °C, pH 7.4, aqueous buffer, thermodynamic from solid, Observed Solubility, Target 100 μM, 0.1M phosphate buffer pH 7.4, 37° C., 24 hours", "value": 118, "unit": "µM"}, {"measurement": "solubility at 24 h", "setting": "[3]; solubility, aqueous/physiological fluids", "value": 0.1, "unit": "mg/mL"}, {"measurement": "effect of pH on aqueous solubility", "setting": "[4]", "value": "not a significant effect"}]}]}
